From ChEMBL document CHEMBL1133211, “Synthesis of feruloyl-myo-inositols and their inhibitory effects on superoxide generation” (2000)

Columns and labels:
HL-60 [1] = experiment: Cell viability in TPA-induced superoxide (O2-) generation in human promyelocytic leukemia HL-60 cells, at 100 uM concentration; assay type: functional
HL-60 [2] = experiment: Inhibitory activity against TPA-induced superoxide (O2-) generation in human promyelocytic leukemia HL-60 cells, at 100 uM concentration; assay type: functional

## COc1cc(/C=C/C(=O)O)ccc1O [FERULATE]
HL-60 [1]
  Cell viability: ~80%
HL-60 [2]
  inhibition at 100 µM: ~12%

## COc1cc(/C=C/C(=O)O[C@H]2[C@@H](O)[C@@H](O)[C@H](OC(=O)/C=C/c3ccc(OC(C)=O)c(OC)c3)[C@@H](O)[C@@H]2O)ccc1OC(C)=O
HL-60 [1]
  Cell viability: ~72%
HL-60 [2]
  inhibition at 100 µM: ~20%

## COc1cc(/C=C/C(=O)O[C@@H]2[C@H](O)[C@@H](O)[C@H](O)[C@@H](O)[C@@H]2OC(=O)/C=C/c2ccc(O)c(OC)c2)ccc1O
HL-60 [1]
  Cell viability: ~80%
HL-60 [2]
  inhibition at 100 µM: ~20%

## CCOC(=O)/C=C/c1ccc(O)c(OC)c1 [ETHYL FERULATE]
HL-60 [1]
  Cell viability: ~80%
HL-60 [2]
  inhibition at 100 µM: ~9%

## COc1cc(/C=C/C(=O)O[C@@H]2[C@H](O)[C@H](OC(C)=O)[C@@H](OC(C)=O)[C@H](OC(C)=O)[C@H]2OC(C)=O)ccc1OC(C)=O
HL-60 [1]
  Cell viability: ~45%
HL-60 [2]
  inhibition at 100 µM: ~5%

## COC(=O)/C=C/c1ccc(O)c(OC)c1
HL-60 [1]
  Cell viability: ~80%
HL-60 [2]
  inhibition at 100 µM: ~2%

## COc1cc(/C=C/C(=O)O[C@@H]2[C@H]3OC4(CCCCC4)O[C@@H]3[C@@H](OC(=O)/C=C/c3ccc(O)c(OC)c3)[C@@H]3OC4(CCCCC4)O[C@H]23)ccc1O
HL-60 [1]
  Cell viability: ~60%
HL-60 [2]
  inhibition at 100 µM: ~30%

## COc1cc(/C=C/C(=O)O[C@@H]2[C@H]3OC4(CCCCC4)O[C@@H]3[C@@H](OC(=O)/C=C/c3ccc(OC(C)=O)c(OC)c3)[C@@H]3OC4(CCCCC4)O[C@H]23)ccc1OC(C)=O
HL-60 [1]
  Cell viability: ~60%
HL-60 [2]
  inhibition at 100 µM: ~25%

## COc1cc(/C=C/C(=O)O[C@@H]2[C@H](OC(C)=O)[C@@H](OC(C)=O)[C@H](OC(C)=O)[C@@H](OC(C)=O)[C@@H]2OC(=O)/C=C/c2ccc(OC(C)=O)c(OC)c2)ccc1OC(C)=O
HL-60 [1]
  Cell viability: ~60%
HL-60 [2]
  inhibition at 100 µM: ~100%

## COc1cc(/C=C/C(=O)O[C@H]2[C@@H](O)[C@@H](O)[C@H](OC(=O)/C=C/c3ccc(O)c(OC)c3)[C@@H](O)[C@@H]2O)ccc1O
HL-60 [1]
  Cell viability: ~80%
HL-60 [2]
  inhibition at 100 µM: ~5%

## COc1cc(/C=C/C(=O)O)ccc1OC(C)=O
HL-60 [1]
  Cell viability: ~82%
HL-60 [2]
  inhibition at 100 µM: ~2%
